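How tested: cells in 96-well plates exposed to compound for 48 hours at five concentrations. Here, GI50 denotes the concentration required for 50% inhibition of growth. TGI denotes the concentration required for complete inhibition of growth.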

Assay in all cases: DTP human tumour cell line panel, 48 h
In experiment [1] the test system is HOP-92 NSCLC.
The subject of experiment [2] is MDA-MB-435.
Experiment [3] has as its system UACC-257 melanoma.
For experiment [4], the system named is RPMI-8226 leukemia.
Experiment [5] concerns DU-145 prostate.
Experiment [6] deals with COLO 205 colon.
The test system of experiment [7] is SNB-19 CNS.
Experiment [8] deals with M14 melanoma.
Experiment [9] concerns T-47D breast.
In experiment [10] the test system is SR leukemia.

For `C[C@]12CC(c3ccccc3O1)C(C(=O)NC13CC4CC(CC(C4)C1)C3)C(=O)N2` (stereo partly drawn), the concentration for total growth inhibition (TGI) (in general, the concentration at which net growth stops) is 55.8 µM in [1]; 65.1 µM in [2]; above 100 µM in [3]; 31.3 µM in experiment [4]; above 100 µM in experiment [5]; 31.7 µM in experiment [6]. Moreover, the TGI is above 100 µM in [7] and 35.9 µM in experiment [8].

On to `CN(C)Cc1ccc(C(=O)Nc2ccc3ncnc(Nc4ccc(Oc5cccc(F)c5)c(Cl)c4)c3c2)cc1`, for which the GI50 (as a rule, the concentration at which growth is held to half of that of the control) was 1.09 µM in experiment [1], 1.74 µM in [2], 1.55 µM in [5] and 1.66 µM in [7]. For the same compound, the TGI in [1] turned out to be 2.44 µM; in experiment [2], 3.25 µM; in experiment [5], 2.91 µM; in [7], 3.09 µM.

Regarding `O=C1c2ccccc2-c2ccc(N=[N+]([O-])c3ccc4c(c3)C(=O)c3ccccc3-4)cc21`, the TGI in experiment [1], in experiment [2], in experiment [9], in experiment [3], in experiment [4] and in [5] was above 100 µM each time. Further, the TGI in experiment [6], in experiment [7] and in experiment [8] was above 100 µM each time.

As to `C=C1C(=O)OC2C1C(OC(=O)/C(C)=C/C)CC1(C)C(=O)CCC(=C)C21` (stereo not drawn), the TGI in experiment [1] is 19.9 µM; in experiment [2], above 58.8 µM; in experiment [9], 43.3 µM; in experiment [3] it was 28.5 µM; in experiment [4], 7.97 µM; in [5], 24.2 µM. The concentration for total growth inhibition (TGI) was above 28 µM in [10], 20.3 µM in [6] and 23.3 µM in [8].

Turning to `CC(C)CC1c2[nH]c3ccccc3c2C[C@H]2C(=O)NC(CCC(=O)OC(C)(C)C)C(=O)N12` (stereo partly drawn), the TGI was 78.1 µM in experiment [1]; 97.4 µM in experiment [2]; 49.7 µM in experiment [9]; 66 µM in experiment [3]; 67.2 µM in [4]; above 100 µM in experiment [5]. The total growth inhibition concentration (TGI) in [10] is 65.1 µM; in experiment [6] it was 39.6 µM; in experiment [7], above 100 µM; in [8], above 100 µM.

In the case of `c1ccc2sc(C3(N4CCCCC4)CCCC3)cc2c1`, the TGI is 25.4 µM in experiment [1]; 29.4 µM in [2]; 29.7 µM in experiment [3]; 10.4 µM in experiment [4]; 24 µM in experiment [5]; 22.3 µM in experiment [10]. The total growth inhibition concentration (TGI) was determined as 19.8 µM in [6], 29.2 µM in experiment [7] and 33.1 µM in experiment [8].

For the compound `O=C(O)C1CC(c2ccccc2)=NN1c1ccccc1` (stereo not drawn), the concentration for total growth inhibition (TGI) in [1], in [2], in [9], in [3], in experiment [4] and in experiment [5] was above 100 µM in each case. Further, the total growth inhibition concentration (TGI) in [6], in [7] and in [8] was above 100 µM each time.

Regarding `S=C1N(c2ccc(Cl)cc2)C2=C(N=Nc3ccccc3)C(=Nc3ccccc3S2)N1c1ccccn1`, the TGI in experiment [1] is 49.6 µM; in experiment [2], 26.7 µM; in experiment [9], 0.899 µM; in [3] it was 30.4 µM; in experiment [4], 43.6 µM; in experiment [5], 27.8 µM. Further, the concentration for total growth inhibition (TGI) came out at 29.2 µM in experiment [10], 25.2 µM in experiment [6], 28.3 µM in experiment [7] and 26.6 µM in experiment [8].

`Oc1cc2cccc[n+]2c2cccc(Cl)c12`: the GI50 in experiment [1] was 15.8 µM; in experiment [2] it was 17.4 µM; in experiment [3], 21.7 µM; in experiment [4], 40.4 µM; in experiment [5], 62.3 µM; in experiment [10], 67.5 µM. Besides, the figures for the GI50 in [6], in experiment [7] and in experiment [8] were 26.3 µM, 92.3 µM and 66.8 µM, respectively. In addition, the concentration for total growth inhibition (TGI) in [1] is 71.5 µM; in experiment [2], 40.8 µM; in experiment [3] it was 48.4 µM; in [6] it was 87.3 µM.

With `O=S(=O)(c1ccc(I)cc1)N(c1ccccc1)S(=O)(=O)C(F)(F)C(F)(F)C(F)(F)C(F)(F)F`, the TGI is 42 µM in [1]; above 100 µM in experiment [2]; above 100 µM in [9]; above 100 µM in [3]; above 100 µM in experiment [4]; above 100 µM in [5]. Moreover, the total growth inhibition concentration (TGI) in [10], in experiment [6], in [7] and in experiment [8] was above 100 µM in each case.

Consider `COc1cc(-c2coc3c(OC)c(OC4OC(CO)C(O)C(O)C4O)c(OC)cc3c2=O)cc(OC)c1C` (stereo not drawn), for which the TGI is 38.4 µM in experiment [1]; 17.9 µM in experiment [2]; 45.1 µM in [9]; above 31.6 µM in experiment [3]; above 100 µM in experiment [4]; 26.8 µM in experiment [5]. Besides, the concentration for total growth inhibition (TGI) in [10] is above 100 µM; in experiment [6] it was above 54.2 µM; in experiment [7], 28.6 µM; in [8], 23.2 µM.

For `S=C(Nc1ccc(Cl)cc1)Nc1ccc(Cl)cc1` (tested in a mixture with another compound), the GI50 is 1.55 µM in [1]; 2.45 µM in experiment [2]; 3.75 µM in experiment [9]; 2.65 µM in experiment [3]; 4.87 µM in [5]; 2.38 µM in experiment [10]. Also, the GI50 in experiment [6] was 1.9 µM; in [7], 3.25 µM; in experiment [8] it was 2.03 µM. Also, the TGI was 4.56 µM in experiment [1]; 7.86 µM in [2]; 23.9 µM in experiment [9]; 6.23 µM in experiment [3]; above 100 µM in [5]; 5.74 µM in experiment [10]. For the same compound, the TGI is 3.42 µM in experiment [6], above 100 µM in experiment [7] and 5.39 µM in experiment [8].

`CC1(C)COC(/C=C/C2=NC(C)(C)CO2)=N1`: the TGI in [1] is 84.1 µM; in experiment [2] it was 82.9 µM; in experiment [9] it was 34 µM; in [3] it was above 100 µM; in [4], 26.2 µM; in experiment [5] it was 44.1 µM. In addition, the total growth inhibition concentration (TGI) in experiment [10] was 27.3 µM; in experiment [6] it was 28.6 µM; in experiment [7], above 100 µM; in experiment [8], 31.4 µM.

On to `O=C(/C=C/c1ccc(O)cc1)NCCc1ccc(O)cc1`, for which the TGI in experiment [1], in experiment [2], in [9], in experiment [3], in [4] and in experiment [5] was above 12.5 µM each time. Moreover, the concentration for total growth inhibition (TGI) in experiment [10], in experiment [6], in experiment [7] and in [8] was above 12.5 µM each time.

With `C[N+]1(C)CCC(C#N)(c2ccccc2)CC1`, the total growth inhibition concentration (TGI) in experiment [1], in experiment [9], in experiment [3], in [4], in [5] and in [10] was above 100 µM each time. Further, the TGI in [6], in experiment [7] and in experiment [8] was above 100 µM in each case.

As to `CC(O)C(O)C(N)CC=O` (stereo not drawn), the TGI in [1], in experiment [3], in experiment [4], in [6] and in [7] was above 500 µM each time.

For the compound `CCOC(=O)n1cncc1CC(NC(=O)Cc1c(C(=O)C=C(C)C)[nH]c2ccccc12)C(=O)OC` (stereo not drawn), the TGI in experiment [1] was 26.4 µM; in experiment [2], 37.1 µM; in experiment [9], 7.46 µM; in experiment [3], 28.2 µM; in [4], above 100 µM; in experiment [5] it was 35.9 µM. In addition, the concentration for total growth inhibition (TGI) in experiment [10] was 16.1 µM; in experiment [6] it was 41 µM; in [7], 30.5 µM; in experiment [8], 33.3 µM.

`O=C1/C(=C\c2ccc(-c3ccc(Cl)cc3Cl)o2)SC2N=C(COc3ccc(Cl)cc3)NN12` (stereo not drawn): the concentration for total growth inhibition (TGI) in experiment [1] was above 100 µM; in [2], above 100 µM; in experiment [9], above 100 µM; in experiment [3], 74.4 µM; in experiment [4], above 100 µM; in [5], above 100 µM. Also, the TGI in [10], in experiment [6], in [7] and in experiment [8] was above 100 µM in each case.

Turning to `COC(=O)C1=CC[C@@H]2C(C(=O)O)=CO[C@@H](OC3OC(CO)C(O)C(O)C3O)[C@H]12` (stereo partly drawn), the TGI in experiment [1] is above 127 µM; in experiment [3], above 300 µM; in [4], above 300 µM; in [6], above 300 µM; in experiment [7] it was above 300 µM.

As to `CC(C)C(N=Cc1ccccc1O)C(=O)O` (stereo not drawn), the TGI in [1], in experiment [2], in experiment [9], in experiment [3], in experiment [4] and in experiment [5] was above 100 µM each time. Also, the TGI in experiment [10], in [6], in experiment [7] and in experiment [8] was above 100 µM throughout.

Turning to `O=S(O)c1cc(Cl)cc(Cl)c1O`, the TGI in experiment [3], in [7] and in experiment [8] was above 100 µM throughout.

In the case of `N#C/C=C1\C=CC(O)C(O)C1OC1OC(CO)C(O)C(O)C1O` (stereo not drawn), the TGI in [1], in experiment [2], in experiment [9], in experiment [3], in experiment [4] and in [5] was above 100 µM throughout. Besides, the total growth inhibition concentration (TGI) in experiment [6], in [7] and in experiment [8] was above 100 µM throughout.

Regarding `CC(=O)OCC1OC(O[C@@H]2c3c(O)c4c(c(O)c3C3=C(NN(c5ccc([N+](=O)[O-])cc5[N+](=O)[O-])[Se]3=O)[C@@]2(C)O)C(=O)c2ccccc2C4=O)C(OC(C)=O)C(OC(C)=O)C1OC(C)=O` (stereo partly drawn), the TGI turned out to be 2.05 µM in experiment [1]; 0.332 µM in experiment [2]; 1.46 µM in [9]; 1.49 µM in [3]; 0.372 µM in [4]; 1.84 µM in experiment [5]. The TGI is 0.502 µM in experiment [10], 0.322 µM in [6] and 1.6 µM in experiment [8].

The values are drawn from PubChem BioAssay (NCI).
